Measured values as given in article PMC11724075, “Small-molecule-induced ERBB4 activation to treat heart failure” (Nature Communications, 2025).
Several values for one entry are separate records, joined by “and”; a condition that tells them apart may be missing. Identical values can stand only once.

Key:
[1] = system: iCAGCre-Erbb4f/f mice; assay: AngII-induced fibrosis in iCAGCre-Erbb4f/f mice injected with corn oil without tamoxifen; type: in vivo, mouse
Source text: (§1) Floxed Erbb4 mice (Erbb4^f/f; C57BL/6N; 129-Erbb4tm1Fej/Mmucd, MMRRC, #010439-UCD) were crossed with CAGGCre-ER^TM mice (Jackson Laboratory, 004682) containing the Tg(CAG-cre/Esr1*)5Amc transgene that expresses Cre recombinase under the control of a chicken beta actin promoter/enhancer coupled to the human cytomegalovirus immediate-early gene enhancer, resulting in expression of tamoxifen-inducible Cre-ERT in most cell types. To induce Cre recombinase-mediated deletion of Erbb4, eleven-week-old female and male iCAGGCre-ER^TM/Erbb4^f/f mice were intraperitoneally injected with tamoxifen (Merck, T5648; 10 mg/kg; in corn oil) daily for 5 consecutive days.
Hearts were fixed in 4% PFA, paraffin-embedded, and cut into 5-µm sections. Images were acquired with an Olympus BX43 microscope (Olympus Stream Motion Software) or a CELENA® S Digital Imaging System and analyzed with ImageJ 2.14.0 software. Collagen distribution was visualized by Masson’s trichrome staining. Cardiac total fibrosis was expressed as the ratio of positively stained fibrotic area (blue) to the total area and perivascular fibrosis as the ratio of fibrotic area to vascular lumen area. Scar size was determined by measuring the scar length over the […]. Hypertrophy and vascularisation were visualized via an isolectin-B4/WGA/DAPI staining. Quantification was performed by a person blinded to the treatment protocol.
Supplementary Figure 6. Effect of AngII in male WT mice with compound NA-1 and the validation of genotype and phenotype of iCAGCre-Erbb4 f/f mice. […]
Uncropped gel is presented in Supplementary Figure 9. (c) Survival curve depicting the effects of 1000 ng/kg AngII treatment on mouse survival (ctrl = black line; 1000 ng/kg AngII = red line; n=6 male and female mice in Ctrl group and n=15 mice who received 1000 ng/kg AngII treatment). (d) Representative images of Masson’s trichrome staining of AngII-induced myocardial fibrosis in iCAGCre- […]
and n=10 male and female ice in AngII/Veh group). Scale bar = 500 µm for total fibrosis, scale bar = 50 µm for perivascular fibrosis. […]

[2] = system: mouse model of AngII-induced myocardial fibrosis; assay: AngII-induced myocardial fibrosis mouse model, 4 weeks, echocardiography, wild-type mice; type: in vivo
Method: Four weeks after implantation, cardiac ultrasound was performed, mice were euthanized, and hearts were collected. A similar set-up was used for the 1-week study (Alzet, model 1007D) in male mice (n = 9-10 mice in every group).
(§2) Echocardiography was performed using the Vevo F2-LAZRX (FUJIFILM VisualSonics) and UHF57x probe. Mice were anesthetized with 1.5% isoflurane (Alvira, BE-V512222). Parasternal long-axis B-mode images and M-mode images were obtained and analyzed using VevoLAB software (FUJIFILM VisualSonics, Version 5.7.1). For the AngII experiments, measurements were obtained through analysis of the short-axis M-mode. For the MI experiments, measurements were obtained through analysis of the parasternal long-axis B-mode, of which the area and end-volume of the left ventricular cavity in diastole and systole were determined by tracing the endocardial border. Acquisitions, measurements and analyses were performed blinded.
(§3) Supplementary Table 2. Echocardiographic parameters. Echocardiographic parameters obtained through the analysis of the M-mode short-axis views. (a) Male and (b) female wild-type mice treated […]
(§4) mice in EF-1 group). (c) Male wild-type mice treated with AngII and NA-1 (n=5 male mice in Ctrl and AngII/Veh group, n=4 male mice in AngII/NA -1 group). (d) Comparison between wild-type and Erbb4-null mice (n=10 male and female wild -type mice and n=6 male and female Erbb4-null mice). (e) Male […]
Echocardiographic parameters obtained through left ventricular trace analysis of the parasternal long-axis obtained in B-mode in female wild-type mice that underwent a sham or MI operation: mice with […]
in MI/EF-1 group). (g) Echocardiographic parameters obtained through left ventricular trace analysis of the parasternal long-axis obtained in B-mode in male wild-type mice that underwent a sham or MI […]
male mice in MI/Veh group for T2 and T4). Echocardiographic parameters were measured weekly (indicated by ‘T’). All data are presented as mean (value of individual mice) ± SD, two-tailed unpaired […]
(§5) 1 groups. Source data are provided as a Source Data file. AngII, angiotensin II; ANOVA, analysis of variance; Ctrl, control; DOX, doxorubicin; EF, ejection fraction; ERBB4, erythroblastic leukemia viral oncogene homolog 4; FS, fractional shortening; IVSd, interventricular septum thickness in diastole; IVSs, interventricular septum thickness in systole; LVIDd, left ventricular internal diameter in diastole; LVIDs, left ventricular internal diameter in systole; LVPWd, left ventricular posterior wall thickness in diastole; LVPWs, left ventricular posterior wall thickness in systole; MI, myocardial infarction; NA, non-activating pharmacophore-containing compound; SD, standard variation; Veh, vehicle.

[3] = system: Erbb4-null mice; assay: AngII-treated Erbb4-null mice, echocardiography; type: in vivo, mouse; details: AngII/EF-1
Source text: as §1, §2, §3, §4
Echocardiographic parameters were measured weekly
(indicated by ‘T’). All data are presented as mean (value of individual mice) ± SD, two-tailed unpaired […]
as §5

[4] = Female wild-type mice, AngII/EF-1
[5] = Male wild-type mice, AngII/EF-1
[6] = Male wild-type mice, EF-1 without AngII
[7] = female wild-type mice, AngII/EF-1, 4 weeks, mean ± SD
[8] = male wild-type mice, AngII + compound 2 mg/kg/day, 4 weeks, mean ± SD
[9] = male wild-type mice, EF-1 group without AngII, 4 weeks, mean ± SD
[10] = Male and female Erbb4-null mice
[11] = male and female Erbb4-null mice, mean ± SD
[12] = Male wild-type mice, AngII/NA-1

Q: Which results are given for `O=C(NC1CC1)C(Sc1nc2ccccc2c(=O)n1C1CCCC1)c1ccccc1` (centres unmarked) [EF-1]?
A: Perivascular fibrosis male+female in vivo corn oil-treated iCAGCre-Erbb4f/f mice with EF-1 ([1]; AngII/EF-1, individual animals): 0.8706 and 1.275 and 0.6537 and 2.675 and 0.6132 and 2.541 and 1.901 and 0.8014; Total fibrosis male+female in vivo corn oil-treated iCAGCre-Erbb4f/f mice with EF-1 ([1]; AngII/EF-1, individual animals): 3.59 and 3.39 and 3.18 and 4.74 and 4.82 and 3.84 and 3.53 and 4.29 and 4.51; inhibitory effects on AngII-induced interstitial and perivascular fibrosis (in words) ([1]; iCAGCre-Erbb4f/f mice injected with corn oil without tamoxifen): preserved; effect on cardiac dimensions on ultrasound (in words) ([2]; AngII model, both sexes): did not significantly alter cardiac dimensions; FS [2, 4]: 11.5 ± 5.5%; IVSd [2, 4]: 0.53 ± 0.07 mm; IVSs [2, 4]: 0.7 ± 0.1 mm; LVIDd [2, 4]: 4.2 ± 0.3 mm; LVIDs [2, 4]: 3.7 ± 0.4 mm; LVPWd [2, 4]: 0.5 ± 0.1 mm; LVPWs [2, 4]: 0.6 ± 0.1 mm; FS [2, 5]: 16.6 ± 3.6%; IVSd [2, 5]: 0.8 ± 0.1 mm; IVSs [2, 5]: 1.1 ± 0.2 mm; LVIDd [2, 5]: 4.4 ± 0.3 mm; LVIDs [2, 5]: 3.7 ± 0.4 mm; LVPWd [2, 5]: 0.8 ± 0.2 mm; LVPWs [2, 5]: 0.9 ± 0.2 mm; FS [2, 6]: 18.5 ± 5.1%; IVSd [2, 6]: 0.9 ± 0.1 mm; IVSs [2, 6]: 1.2 ± 0.1 mm; LVIDd [2, 6]: 4.2 ± 0.3 mm; LVIDs [2, 6]: 3.4 ± 0.3 mm; LVPWd [2, 6]: 0.75 ± 0.03 mm; LVPWs [2, 6]: 0.9 ± 0.1 mm; FS [2, 7]: 11.5 ± 5.5%; IVSd [2, 7]: 0.53 ± 0.07 mm; IVSs [2, 7]: 0.7 ± 0.1 mm; LVIDd [2, 7]: 4.2 ± 0.3 mm; LVIDs [2, 7]: 3.7 ± 0.4 mm; LVPWd [2, 7]: 0.5 ± 0.1 mm; LVPWs [2, 7]: 0.6 ± 0.1 mm; FS [2, 8]: 16.6 ± 3.6%; IVSd [2, 8]: 0.8 ± 0.1 mm; IVSs [2, 8]: 1.1 ± 0.2 mm; LVIDd [2, 8]: 4.4 ± 0.3 mm; LVIDs [2, 8]: 3.7 ± 0.4 mm; LVPWd [2, 8]: 0.8 ± 0.2 mm; LVPWs [2, 8]: 0.9 ± 0.2 mm; FS [2, 9]: 18.5 ± 5.1%; IVSd [2, 9]: 0.9 ± 0.1 mm; IVSs [2, 9]: 1.2 ± 0.1 mm; LVIDd [2, 9]: 4.2 ± 0.3 mm; LVIDs [2, 9]: 3.4 ± 0.3 mm; LVPWd [2, 9]: 0.75 ± 0.03 mm; LVPWs [2, 9]: 0.9 ± 0.1 mm; FS [3, 10]: 5.8 ± 3.5%; IVSd [3, 10]: 1.0 ± 0.3 mm; IVSs [3, 10]: 1.2 ± 0.5 mm; LVIDd [3, 10]: 5.8 ± 0.3 mm; LVIDs [3, 10]: 5.5 ± 0.5 mm; LVPWd [3, 10]: 1.0 ± 0.4 mm; LVPWs [3, 10]: 1.1 ± 0.4 mm; FS [3, 11]: 5.8 ± 3.5%; IVSd [3, 11]: 1.0 ± 0.3 mm; IVSs [3, 11]: 1.2 ± 0.5 mm; LVIDd [3, 11]: 5.8 ± 0.3 mm; LVIDs [3, 11]: 5.5 ± 0.5 mm; LVPWd [3, 11]: 1.0 ± 0.4 mm; LVPWs [3, 11]: 1.1 ± 0.4 mm

Q: Which results are given for `Cc1sc2nc(SC(C)C(=O)NCc3ccc4c(c3)OCO4)n(-c3ccccc3)c(=O)c2c1C` (centres unmarked) [NA-1]?
A: FS [2, 12]: 18.1 ± 5.1%; IVSd [2, 12]: 1.0 ± 0.2 mm; IVSs [2, 12]: 1.4 ± 0.2 mm; LVIDd [2, 12]: 4.3 ± 0.7 mm; LVIDs [2, 12]: 3.5 ± 0.7 mm; LVPWd [2, 12]: 0.9 ± 0.1 mm; LVPWs [2, 12]: 1.1 ± 0.3 mm; FS [2, 8]: 18.1 ± 5.1%; IVSd [2, 8]: 1.0 ± 0.2 mm; IVSs [2, 8]: 1.4 ± 0.2 mm; LVIDd [2, 8]: 4.3 ± 0.7 mm; LVIDs [2, 8]: 3.5 ± 0.7 mm; LVPWd [2, 8]: 0.9 ± 0.1 mm; LVPWs [2, 8]: 1.1 ± 0.3 mm
